Measured values taken from patent publication US20070128217A1 (priority 2003, published 2007).

Key:
[1] = system: antibodies in sera from SARS patients (sera 1a, 1b, 2, 6, 37, 62, London, SARS-yellow, SARS-green); type: binding, human; parameters: Binding of serum 6 to linear peptides of protein X1 of SARS-CoV Urbani / Binding of serum 37 to linear peptides of protein X1 of SARS-CoV Urbani / Binding of serum 6 to looped/cyclic peptide (PEPSCAN-ELISA) / Binding of serum 37 to looped/cyclic peptide (PEPSCAN-ELISA) / Binding of serum 37 to looped/cyclic peptides of protein X1 of SARS-CoV Urbani / Binding of serum 6 to linear peptides of protein X2 / Binding of serum 37 to linear peptides of protein X2 / Binding of serum 37 to looped/cyclic peptides of protein X2 of SARS-CoV Urbani / Binding of serum 6 to linear peptides of protein M of SARS-CoV Urbani / Binding of serum 37 to linear peptides of protein M of SARS-CoV Urbani / Binding of serum 6 to looped/cyclic peptides of protein M of SARS-CoV Urbani / Binding of serum 37 to looped/cyclic peptides of protein M of SARS-CoV Urbani / Binding of serum 6 to linear peptides of protein X3 of SARS-CoV Urbani / Binding of serum 37 to linear peptides of protein X3 of SARS-CoV Urbani / Binding of serum 37 to looped/cyclic peptides of protein X3 of SARS-CoV Urbani / Binding of serum 6 to linear peptides of protein X4 of SARS-CoV Urbani / Binding of serum 37 to linear peptides of protein X4 of SARS-CoV Urbani / Binding of serum 37 to looped/cyclic peptides of protein X4 of SARS-CoV Urbani / Binding of serum 6 to linear peptides of protein X5 of SARS-CoV Urbani / Binding of serum 37 to linear peptides of protein X5 of SARS-CoV Urbani / Binding of serum 37 to looped/cyclic peptides of protein X5 of SARS-CoV Urbani / Binding of serum 6 to linear peptides of protein N of SARS-CoV Urbani / Binding of serum 37 to linear peptides of protein N of SARS-CoV Urbani / Binding of serum 6 to linear peptide (PEPSCAN-ELISA) / Binding of serum 1a to looped/cyclic peptides of protein N of SARS-CoV Urbani / Binding of serum 1b to looped/cyclic peptides of protein N of SARS-CoV Urbani / Binding of serum 2 to looped/cyclic peptides of protein N of SARS-CoV Urbani / Binding of serum 6 to looped/cyclic peptides of protein N of SARS-CoV Urbani / Binding of serum 37 to looped/cyclic peptides of protein N of SARS-CoV Urbani / Binding of serum 62 to looped/cyclic peptides of protein N of SARS-CoV Urbani / Binding of serum London to looped/cyclic peptides of protein N of SARS-CoV Urbani / Binding of serum SARS-green to looped/cyclic peptides of protein N of SARS-CoV Urbani: unit not given here
[2] = system: control sera (pooled serum of ten healthy LUMC hospital workers; commercial negative donor pooled serum from the Dutch bloodbank); type: binding, human; parameters: Binding of Control serum LUMC to linear peptides / Binding of Control serum Blood-bank to linear peptides / Binding of Control serum LUMC to looped peptides / Binding of Control Serum Blood-Bank to Looped peptides / Binding of Control serum LUMC to linear peptides of the protein M of SARS-CoV Urbani / Binding of Control serum Blood-bank to linear peptides of the protein M of SARS-CoV Urbani / Binding of Control serum LUMC to looped peptides of the protein M of SARS-CoV Urbani / Binding of Control Serum Blood-Bank to Looped peptides of the protein M of SARS-CoV Urbani: unit not given here
[3] = system: rabbit serum obtained by immunizing a rabbit with the SARS-CoV strain Frankfurt 1; type: binding; parameters: Binding of a rabbit serum to linear peptides / Binding of a rabbit serum to looped peptides / Rabbit serum linear peptides / Rabbit serum looped peptides / Binding of a rabbit serum to linear peptides of protein N of SARS-CoV Urbani (Rabbit serum linear peptides) / Binding of a rabbit serum to looped/cyclic peptides of protein N of SARS-CoV Urbani (Rabbit serum looped peptides): unit not given here

## LLYDANYFVCWHTHN
[1]
  Binding of serum 1a to linear peptides of protein X1 of SARS-CoV Urbani: 0.9
  Binding of serum 1a to looped/cyclic peptide (PEPSCAN-ELISA): 0.6
  Binding of serum 1b to linear peptides of protein X1 of SARS-CoV Urbani: 0.7
  Binding of serum 1b to looped/cyclic peptide (PEPSCAN-ELISA): 0.5
  Binding of serum 2 to linear peptides of protein X1 of SARS-CoV Urbani: 0.6
  Binding of serum 2 to looped/cyclic peptide (PEPSCAN-ELISA): 0.4
  Binding of serum 6 to linear peptides of protein X1 of SARS-CoV Urbani: 0.7
  Binding of serum 6 to looped/cyclic peptide (PEPSCAN-ELISA): 0.4
  Binding of serum 37 to linear peptides of protein X1 of SARS-CoV Urbani: 0.7
  Binding of serum 37 to looped/cyclic peptide (PEPSCAN-ELISA): 0.6
  Binding of serum 62 to linear peptides of protein X1 of SARS-CoV Urbani: 0.8
  Binding of serum 62 to looped/cyclic peptide (PEPSCAN-ELISA): 0.6
  Binding of serum London to linear peptides of protein X1 of SARS-CoV Urbani: 0.4
  Binding of serum London to looped/cyclic peptide (PEPSCAN-ELISA): 0.2
  Binding of serum SARS-green to linear peptides of protein X1 of SARS-CoV Urbani: 0.4
  Binding of serum SARS-green to looped/cyclic peptide (PEPSCAN-ELISA): 0.3
  Binding of serum SARS-yellow to linear peptides of protein X1 of SARS-CoV Urbani: 0.5
  Binding of serum SARS-yellow to looped/cyclic peptide (PEPSCAN-ELISA): 0.4
[2]
  Binding of Control Serum Blood-Bank to Looped peptides: 0.6
  Binding of Control serum Blood-bank to linear peptides: 0.8
  Binding of Control serum LUMC to linear peptides: 0.7
  Binding of Control serum LUMC to looped peptides: 0.5
[3]
  Binding of a rabbit serum to linear peptides: 0.1
  Binding of a rabbit serum to looped peptides: 0.5

## LKTHRMCKYTQSTAL
[1]
  Binding of serum 1a to linear peptides of protein X2: 0.8
  Binding of serum 1a to looped/cyclic peptides of protein X2 of SARS-CoV Urbani: 0.6
  Binding of serum 1b to linear peptides of protein X2: 0.6
  Binding of serum 1b to looped/cyclic peptides of protein X2 of SARS-CoV Urbani: 0.6
  Binding of serum 2 to linear peptides of protein X2: 0.5
  Binding of serum 2 to looped/cyclic peptides of protein X2 of SARS-CoV Urbani: 0.4
  Binding of serum 6 to linear peptides of protein X2: 0.6
  Binding of serum 6 to looped/cyclic peptides of protein X2 of SARS-CoV Urbani: 0.5
  Binding of serum 37 to linear peptides of protein X2: 0.7
  Binding of serum 37 to looped/cyclic peptides of protein X2 of SARS-CoV Urbani: 0.5
  Binding of serum 62 to linear peptides of protein X2: 0.7
  Binding of serum 62 to looped/cyclic peptides of protein X2 of SARS-CoV Urbani: 0.6
  Binding of serum London to linear peptides of protein X2: 0.5
  Binding of serum London to looped/cyclic peptides of protein X2 of SARS-CoV Urbani: 0.2
  Binding of serum SARS-green to linear peptides of protein X2: 0.5
  Binding of serum SARS-green to looped/cyclic peptides of protein X2 of SARS-CoV Urbani: 0.3
  Binding of serum SARS-yellow to linear peptides of protein X2: 0.8
  Binding of serum SARS-yellow to looped/cyclic peptides of protein X2 of SARS-CoV Urbani: 0.6
[2]
  Binding of Control Serum Blood-Bank to Looped peptides: 0.7
  Binding of Control serum Blood-bank to linear peptides: 0.7
  Binding of Control serum LUMC to linear peptides: 0.6
  Binding of Control serum LUMC to looped peptides: 0.6
[3]
  Binding of a rabbit serum to linear peptides: 0.4
  Binding of a rabbit serum to looped peptides: 0.5

## LLQFAYSNRNRFLYI
[1]
  Binding of serum 1a to linear peptides of protein M of SARS-CoV Urbani: 0.7
  Binding of serum 1a to looped/cyclic peptides of protein M of SARS-CoV Urbani: 0.7
  Binding of serum 1b to linear peptides of protein M of SARS-CoV Urbani: 0.6
  Binding of serum 1b to looped/cyclic peptides of protein M of SARS-CoV Urbani: 0.5
  Binding of serum 2 to linear peptides of protein M of SARS-CoV Urbani: 0.4
  Binding of serum 2 to looped/cyclic peptides of protein M of SARS-CoV Urbani: 0.6
  Binding of serum 6 to linear peptides of protein M of SARS-CoV Urbani: 0.3
  Binding of serum 6 to looped/cyclic peptides of protein M of SARS-CoV Urbani: 0.6
  Binding of serum 37 to linear peptides of protein M of SARS-CoV Urbani: 0.3
  Binding of serum 37 to looped/cyclic peptides of protein M of SARS-CoV Urbani: 0.5
  Binding of serum 62 to linear peptides of protein M of SARS-CoV Urbani: 0.3
  Binding of serum 62 to looped/cyclic peptides of protein M of SARS-CoV Urbani: 0.4
  Binding of serum London to linear peptides of protein M of SARS-CoV Urbani: 0.3
  Binding of serum London to looped/cyclic peptides of protein M of SARS-CoV Urbani: 0.2
  Binding of serum SARS-green to linear peptides of protein M of SARS-CoV Urbani: 0.5
  Binding of serum SARS-green to looped/cyclic peptides of protein M of SARS-CoV Urbani: 0.1
  Binding of serum SARS-yellow to linear peptides of protein M of SARS-CoV Urbani: 0.2
  Binding of serum SARS-yellow to looped/cyclic peptides of protein M of SARS-CoV Urbani: 0.5
[2]
  Binding of Control Serum Blood-Bank to Looped peptides of the protein M of SARS-CoV Urbani: 0.5
  Binding of Control serum Blood-bank to linear peptides of the protein M of SARS-CoV Urbani: 0.6
  Binding of Control serum LUMC to linear peptides of the protein M of SARS-CoV Urbani: 0.6
  Binding of Control serum LUMC to looped peptides of the protein M of SARS-CoV Urbani: 0.5
[3]
  Rabbit serum linear peptides: 0.2
  Rabbit serum looped peptides: 0.4
